In patent US5430057A, “Parenteral busulfan for treatment of malignant disease” (priority 1993, dated 1995):
In brackets after ≈: the same amount, converted by molar mass. Entries after “also recorded” stand apart in the source; their conditions may differ.

How the values were obtained:
[1] = test system: erythrocytes; conditions: cited from earlier work
[2] = Solubility of busulfan in various solvent systems (HPLC); assay type: physicochemical; conditions: acetone, organic solvent or mixture
[3] = Equilibrium solubility studies; assay type: physicochemical; conditions: anhydrous dma, organic solvent or mixture
Protocol: An excess amount of busulfan was added to each solution and the mixtures were placed on a rotating mixer (Tube Rotator™, Scientific Equipment Products, Baltimore, Md.). […] For the DMA/PEG-400 aqueous vehicle, a slightly modified approach had to be taken, since DMA readily dissolved the ACRO LC 25 filter. After dissolving the busulfan in DMA, the busulfan-DMA solution was mixed with 40% PEG-400/40% water and filtered through a 0.45 μm silver filter (Nuclepore Corp., Pleasanton, Calif.) fitted to a syringe assembly. After derivatization with DDTC, the busulfan concentration was determined by HPLC as above.

[4] = Stability of busulfan formulations on storage / after mixing; assay type: physicochemical
Protocol: Stability of the Various Busulfan Formulations. The physical and chemical stabilities of the various parenteral busulfan formulations were examined as follows: First, busulfan was dissolved at a concentration of 25 mg/ml in DMA only ("stock solution") and incubated at 4° C. at 22° C. and at 40°C. Starting at time zero, then weekly up to 10 weeks, samples were withdrawn and analyzed for busulfan concentration by HPLC. Second, the busulfan-DMA was diluted with PEG-400/water to give final concentrations of DMA:PEG-400:water of 20:40:40 and final busulfan concentrations of 2-10 mg/ml. These formulations were subsequently analyzed by HPLC immediately after mixing and then hourly for eight hours. Third, busulfan formulation mixtures were diluted in normal saline to a final busulfan concentration of 1 mg/ml. The preparations were then introduced into infusion bags (Viaflex™ Baxter Healthcare Corp Deerfield, Id.), and allowed to run through a parenteral infusion set at a rate of 1 ml/min. Samples were collected at 0, 0.5, 1.0, 2.0, 5.0, 7.0, 9.0, and 12 hours and analyzed for busulfan by HPLC as above.
The drug was first dissolved in DMA at 25 mg/ml. Different aliquots were stored at 4° C., at 22° C., and at 40°C. From time 0 and then weekly, samples were analyzed for busulfan drug degradation over at least 15 weeks of observation. […] The stability of busulfan in the complete 20% DMA/40% PEG-400/40% water was also studied for the following different busulfan concentrations, 2, 3, 5, 8, and 10 mg/ml. At 2 and 3 mg/ml the busulfan was stable for the duration of the 8 hour observation period in this solvent system.

[5] = test system: human erythrocytes; assay: Hemolysis studies; assay type: cell-based; conditions: in words
Protocol: The procedure of Reed and Yalkowsky was employed for the studies of hemolytic potential of the different preparations, and the LD50 values of the various formulations were evaluated (Reed et al., 1985).
Variable amounts of whole blood (citrated) were added to 0.05 ml of the drug formulations in ratios of 1:1 (v/v), 1:3, 1:5, 1:7, and 1:9. The mixtures were vortexed for 10 seconds and then incubated for 2 minutes at 25°C. Five ml normal saline was then added to this blend to quench further lysis of the erythrocytes by rendering the preparation nearly isotonic. The mixture was again vortexed for 10 seconds and centrifuged for 5 minutes at 3,000 r.p.m. (Beckman Model TJ-6 Centrifuge, Beckman Instruments Inc., Palo Alto, Calif.). The supernatant was carefully aspirated and discarded. The packed erythrocytes were washed once more at room temperature with one volume of normal saline. After centrifugation, the supernatant was again carefully aspirated and discarded. […] The absorbance of the supernatant was subsequently measured at 540 nm after a 1:3 dilution with distilled water° Normal saline was assayed in parallel as a standard. The fraction of […] was defined as the absorbance reading of the respective drug formulation divided by that of the saline standards (Reed et al., 1985).
The hemolytic potential of the various busulfan formulations was evaluated. […]

[6] = test system: human KBM-3 myeloid leukemia cells; assay: In vitro cytotoxicity, MTT assay; assay type: cell-based; conditions: for cells killed: 24 hours, 37° C.
Protocol: In vitro Cytotoxicity of Busulfan in the DMA/PEG-400 Vehicle. Human leukemic KBM-3 cells (Anderson, et al., 1992), were incubated for 24 hours in the complete vehicle without the addition of busulfan at different concentrations (0.5%, 1.0%, 2.0%, 3.0% and […], v/v), to assay the cytotoxic properties of the 20% DMA/40% PEG-400 aqueous vehicle by itself (negative controls), or with the addition of busulfan. In parallel, cells in Iscove's modified Dulbecco medium (GIBCO, Grand Island, New York, N.Y.), supplemented with 10% fetal bovine serum, were incubated with busulfan (at 25 μg/ml and 50 μg/ml), in the 20% DMA/40% PEG-400 aqueous solvent (the resulting vehicle concentrations were 1.0 and 2.0% (v/v), respectively), or with busulfan dissolved in a small volume (≤1%, v/v) of acetone (positive controls). After 24 hours, 25 μl of a 5 mg/ml solution of MTT (3, [4,5-dimethylthiazol-2-yl]2,5-diphenyltetrazoliumbromide, obtained from Sigma Chemicals, St. Louis, MO), was added to each sample, and after an additional 2 hours of incubation at 37° C., 100 μl of extraction buffer was added (extraction buffer: 20% (w/v) SDS dissolved to saturation at 37° C. in a solution of equal parts of dimethylformamide and deionized water; the pH was adjusted to 4.7 by the use of acetic acid and 1 N HCL as described (Hansen et al., 1989). After over night incubation at 37° C., the optical densities at 570 nm were measured using a Titer-Tech 96-well multi-scanner, using the extraction buffer as the blank. The cytotoxicity was determined as the difference between the samples as above and the reactivity of cells incubated in PBS alone. All determinations were performed in triplicate.
To study the cytotoxic activity of busulfan in the 20% DMA/40% PEG-400 aqueous vehicle, human KBM-3 myeloid leukemia cells (Andersson et al., 1992), were exposed to either the complete vehicle at various concentrations without or with the addition of busulfan for 24 hours at 37° C. The cytotoxicity was assayed with the MTT assay (Hansen et al., 1989). […]

[7] = Plasma pharmacokinetics of busulfan, oral tablet, oral solution and i.v. solution; assay type: in vivo, Sprague-Dawley rats; conditions: in words
Excerpt: The present example provides the development of an efficient technique for extraction of busulfan from blood plasma, adaptation of the HPLC assay for quantitation of busulfan in the plasma extract, and studies of the in vivo plasma pharmacokinetics of busulfan when administered orally as the commercially available tablet, as an oral solution in a vehicle of 40% PEG-400, and as an intravenous injection when dissolved in a vehicle of 40% PEG-400. A comparison of the plasma pharmacokinetics of busulfan in the rat is also given after i.v. busulfan administration. The drug was dissolved at 3 mg/ml in either acetone or DMSO or the complete 20% DMA/40% PEG-400 aqueous solvent.
Rat plasma (0.2 ml) was spiked with varying concentrations of busulfan (from a stock solution in DMA), to give final drug concentrations of 0.15-3.0 μg/ml. The internal standard, 20 μl, (CGA-112913; in methanol, 20 μg/ml) was then added to the drug-plasma mixtures. After vortexing for 10 seconds, the drug and internal standard were precipitated from the plasma proteins with 0.2 ml acetonitrile with subsequent vortexing for 30 seconds. The busulfan and internal standard were then extracted using 2 ml of ethyl acetate and vortexed for 1 minute. The solutions were centrifuged for 10 minutes and 1 ml of the ethyl acetate layer was evaporated to dryness under compressed air. The busulfan and internal standard were then dissolved in 0.5 ml of distilled water and derivatized with 0.2 ml of an 8.2% (w/v) solution of diethyldithiocarbamic acid sodium and vortexed for 30 seconds.
The busulfan derivative, DDCB (Diethyldithiocarbamoyl butane), was subjected to solid phase extraction with Sep-Pak LC™ cartridges (Millipore Corporation, Bedford, Ill.) under vacuum. The cartridges were conditioned with three 1-ml washes of methanol followed by two 1-ml washes with distilled water. The derivatized solutions were then passed through the cartridges and the cartridges washed twice with 1 ml 50% methanol in distilled water. The DDCB and the internal standard were eluted from the columns using 250-μ1 methanol twice, followed by two washes of 0.5-ml of ethyl acetate. […]

[8] = room temperature; cited from earlier work
[9] = cited from earlier work
[10] = i.p., cited from earlier work
[11] = i.p., 2.5% carboxymethylcellulose in water; cited from earlier work

Compound: cyclodextrins
- hemolysis LD50 ([1]; Yoshida et al., 1988): about 2 % (w/v)

Compound: CS(=O)(=O)OCCCCOS(C)(=O)=O [busulfan, 1,4-bis-(methanesulfonoxyl)butane]
- solubility [2]: 25 mg/mL (≈ 101 mM)
- solubility [3]: 75 mg/mL (≈ 304 mM)
- onset of degradation ([4]; 25 mg/ml in DMA, 40° C.): around 3 weeks
- degradation at 15 weeks ([4]; 25 mg/ml in DMA, 40° C., 15 weeks, 151200 min): about 50%
- stability in DMSO ([4]; DMSO, in words): rapidly degrades busulfan
- contribution of busulfan to hemolysis [5]: did not add significantly to the overall hemolytic effect; also recorded: insignificant
- cytotoxic activity in vehicle ([6]; 20% DMA/40% PEG-400 aqueous vehicle vs acetone, in words): retained its cytotoxic activity
- cells killed ([6]; busulfan 25 μg/ml in 20% DMA/40% PEG-400 aqueous vehicle): about 50%
- cells killed ([6]; busulfan 50 μg/ml in 20% DMA/40% PEG-400 aqueous vehicle): approximately 80%
- absorption, non-fasting vs fasting animals ([7]; oral): non-fasting animals seem to absorb more drug than fasting subjects
- bioavailability / plasma concentrations vs oral preparations ([7]; parenteral vs oral): higher after parenteral administration than after oral dosing
- AUC, parenteral vs standard tablet in non-fasting animals ([7]; ratio): about five times higher
- peak plasma concentration, parenteral vs standard tablet in non-fasting animals ([7]; ratio): approximately ten times higher
- solubility in water [8]: 25 µg/mL (≈ 0.101 mM)
- liver toxicity ([9]; oral, high dose combinations): veno-occlusive disease (VOD) of the liver, leading to fatal liver failure
- neurological and gastrointestinal side effects ([9]; oral, high dose): grand mal seizures and severe nausea and vomiting
- myelosuppression ([9]; prolonged administration): occasionally severe, sometimes even irreversible myelosuppression
- hemolysis by busulfan itself ([1]; Bishop et al., 1986): shown to cause hemolysis
- platelet dysfunction ([10]; in polyethyleneglycol, 60 mg/kg): induce platelet dysfunction
- toxicity of intraperitoneal administration [10]: very toxic and causes significant local tissue damage
- local toxicity of intraperitoneal injection [11]: causes significant local tissue damage
